From patent publication US8575197B2, “Pyrolinone derivative and pharmaceutical composition comprising the same” (Shionogi & Co., Ltd., priority 2008, dated 2013)

What follows are compounds tested against human P2X3 receptor (Homo sapiens (Human), UniProt P56373) (assay: P2X3 receptor inhibition, ATP-evoked Fluo-3 calcium fluorescence (FDSS 3000)). Conditions: C6BU-1 cell transfected with human P2X3 receptor gene; ATP-evoked Fluo-3 fluorescence.
Type: cell-based
Protocol: Stably expressing cell line (C6BU-1 cell transfected with human P2X3 receptor gene (GenBank accession number Y07683)) was used. The cells were seeded in a 96-well microtiter plate at a concentration of 8000 cells/well and cultured in the medium (8.3% fetal bovine serum, 8.3% horse serum, 1% antibiotic and antifungal in DMEM) for one day at 37° C. under 5% carbon dioxide atmosphere. The medium was replaced with 4 μM Fluo-3-AM solution (pH7.5) containing 20 mM HEPES, 137 mM NaCl, 2.7 mM KCl, 0.9 mM MgCl2, 5.0 mM CaCl2, 5.6 mM D-glucose, 2.5 mM probenecid, 10% BSA, and 0.08% Pluronic F-127, and incubated at 37° C. under 5% dioxide carbon atmosphere for one hour. The plate was washed with washing buffer (20 mM HEPES, 137 mM NaCl, 2.7 mM KCl, 0.9 mM MgCl2, 5.0 mM CaCl2, 5.6 mM D-glucose, 2.5 mM probenecid, pH7.5), and each well was added with 40 μL of this buffer. The plate was placed in High-Throughput Screening System FDSS 3000 (Hamamatsu Photonics K.K.). Measurement of fluorescence intensity by FDSS 3000 was started, and 40 μL of DMSO solutions containing different concentrations of the test compound as prepared by dilution with dilution buffer (20 mM HEPES, 137 mM NaCl, 2.7 mM KCl, 0.9 mM MgCl2, 5.0 mM CaCl2, 5.6 mM D-glucose, 2.5 mM probenecid, 0.1% Pluronic F-127, pH7.5) were dispensed to each well through the built-in automatic dispenser. Five minutes after, 40 nM ATP solution (50 μL) prepared by dilution with the dilution buffer was dispensed through the built-in automatic dispenser, and the measurement of fluorescence intensity was continued for 3 min. For each well, the specific maximum fluorescence intensity was calculated as the ratio of the maximum fluorescence intensity after addition of the ATP solution to the fluorescence intensity at the starting of the measurement. […] FDSS software (Hamamatsu Photonics K.K.) was used for calculation of the specific maximum fluorescence intensity. IC50 was calculated using Microsoft™ Excel™ (Microsoft Corporation) and XLfit™ (ID Business Solutions Ltd.).

Chain of human P2X3 receptor (P56373 whole entry): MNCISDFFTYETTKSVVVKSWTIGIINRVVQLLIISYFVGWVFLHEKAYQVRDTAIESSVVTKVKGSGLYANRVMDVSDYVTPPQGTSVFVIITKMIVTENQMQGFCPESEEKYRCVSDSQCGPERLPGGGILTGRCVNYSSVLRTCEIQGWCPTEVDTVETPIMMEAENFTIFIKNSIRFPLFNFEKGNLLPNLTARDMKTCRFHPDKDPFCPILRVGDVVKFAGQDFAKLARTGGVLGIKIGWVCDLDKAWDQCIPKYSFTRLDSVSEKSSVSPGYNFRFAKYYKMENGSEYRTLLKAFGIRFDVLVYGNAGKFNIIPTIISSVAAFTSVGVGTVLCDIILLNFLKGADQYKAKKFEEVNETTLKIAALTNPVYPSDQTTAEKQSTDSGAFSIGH

| Structure (SMILES) | IC50 |
| --- | --- |
| Cc1ccc(-c2ccc(N3C(=O)C(O)=C(C(=O)CC(C)C)C3c3ccccc3OC(F)F)cc2)o1 (stereo not drawn) [Compound I-361] | 48 nM |
| COc1ccc(C(=O)C2=C(O)C(=O)N(c3ccc(-c4ccco4)cc3)C2C2CCCCC2)cc1 (stereo not drawn) [Compound I-015] | 12 nM |
| COc1ccccc1C1C(C(=O)C(C)(C)C)=C(O)C(=O)N1c1ccc(-c2ccco2)cc1 (stereo not drawn) [Compound I-092] | 92 nM |
| COc1ccc(CC(=O)C2=C(O)C(=O)N(c3ccc(-c4noc(C)n4)cc3)C2C2CCCCC2)cc1 (stereo not drawn) [Compound I-331] | 722 nM |
| CCOc1ncccc1C1C(C(=O)C(C)C)=C(O)C(=O)N1c1ccc(-c2ccsc2)cc1 (stereo not drawn) [Compound I-441] | 13 nM |
| CNC(=O)c1ncccc1C1C(C(=O)CC(C)C)=C(O)C(=O)N1c1ccc(-c2ccc(C)s2)cc1 (stereo not drawn) [Compound I-573] | 123 nM |
| COCCCOc1ccccc1C1C(C(=O)CC(C)C)=C(O)C(=O)N1c1ccc(-c2ccsc2)cc1 (stereo not drawn) [Compound I-490] | 17 nM |
| COCc1ncccc1C1C(C(=O)C(C)(C)C)=C(O)C(=O)N1c1ccc(-c2ccsc2)cc1 (stereo not drawn) [Compound I-162] | 41 nM |
| O=C1C(O)=C(S(=O)(=O)c2ccccc2)C(C2CCCCC2)N1c1ccc(-c2ccon2)cc1 (stereo not drawn) [Compound I-482] | 333 nM |
| Cc1ccc(-c2ccc(N3C(=O)C(O)=C(C(=O)C(C)C)C3c3cccnc3OCCCO)cc2)o1 (stereo not drawn) [Compound I-478] | 34 nM |
| CSc1ccc(N2C(=O)C(O)=C(C(=O)C(C)C)C2c2ccccc2OCC2CC2)cc1 (stereo not drawn) [Compound I-589] | 32 nM |
| COc1ncccc1C1C(C(=O)C(C)(C)C)=C(O)C(=O)N1c1ccc(-c2cccs2)nc1 (stereo not drawn) [Compound I-122] | 342 nM |
| COCCOc1cc(F)ccc1C1C(C(=O)CC(C)C)=C(O)C(=O)N1c1ccc(-c2ccoc2)cc1 (stereo not drawn) [Compound I-368] | 16 nM |
| Cc1ccc(-c2ccc(N3C(=O)C(O)=C(C(=O)CC(C)C)C3c3cccnc3C(=O)NC(C)C)cc2)s1 (stereo not drawn) [Compound I-578] | 386 nM |
| COc1ccccc1C1C(C(=O)C(C)C)=C(O)C(=O)N1c1ccc(-c2ccoc2)cc1 (stereo not drawn) [Compound I-198] | 64 nM |
| Cc1nc(-c2ccc(NC3=CC(C4CCCCC4)N(c4ccc(-c5noc(C)n5)cc4)C3=O)cc2)no1 (stereo not drawn) [Compound I-469] | 646 nM |
| COCOc1ccccc1C1C(C(=O)C(C)C)=C(O)C(=O)N1c1ccc(-c2noc(C)n2)cc1 (stereo not drawn) [Compound I-311] | 121 nM |

| Structure (SMILES) | IC50 |
| --- | --- |
| CCOCOc1ccccc1C1C(C(=O)C(C)C)=C(O)C(=O)N1c1ccc(-c2nc(C)no2)cc1 (stereo not drawn) [Compound I-545] | 142 nM |
| CC(C)CC(=O)C1=C(O)C(=O)N(c2ccc(-c3ccoc3)cc2)C1c1ccccc1C(=O)N(C)C (stereo not drawn) [Compound I-430] | 153 nM |
| Cc1ccc(-c2ccc(N3C(=O)C(O)=C(C(=O)C(C)C)C3c3ccccc3CCC(=O)N(C)C)cc2)o1 (stereo not drawn) [Compound I-537] | 83 nM |
| CSc1ccc(N2C(=O)C(O)=C(C(=O)CC(C)C)C2c2ccccc2OCC#N)cc1 (stereo not drawn) [Compound I-511] | 117 nM |
| CC(C)C(=O)C1=C(O)C(=O)N(c2ccc(-c3ccsc3)cc2)C1c1cccnc1OCCO (stereo not drawn) [Compound I-176] | 46 nM |
| COc1cc(F)ccc1C1C(C(=O)C(C)C)=C(O)C(=O)N1c1ccc(-c2ccsc2)cc1 (stereo not drawn) [Compound I-325] | 18 nM |
| Cc1nc(-c2ccc(N3C(=O)C(O)=C(C(=O)C(C)C)C3c3ccccc3OC3CCOCC3)cc2)no1 (stereo not drawn) [Compound I-502] | 67 nM |
| CCCC(CCC)C1C(C(=O)c2ccc(CO)cc2)=C(O)C(=O)N1c1ccc(-c2ccon2)cc1 (stereo not drawn) [Compound I-006] | 27 nM |
| COCOc1ccccc1C1C(C(=O)CC(C)C)=C(O)C(=O)N1c1ccc(-c2ccsc2)cc1 (stereo not drawn) [Compound I-249] | 10 nM |
| CCNC(=O)c1ncccc1C1C(C(=O)CC(C)C)=C(O)C(=O)N1c1ccc(-c2ccc(C)s2)cc1 (stereo not drawn) [Compound I-530] | 237 nM |
| Cc1cc(-c2ccc(N3C(=O)C(O)=C(C(=O)CC(C)C)C3c3ccccc3OCCO)cc2)on1 (stereo not drawn) [Compound I-345] | 999 nM |
| COCOc1ccccc1C1C(C(=O)C(C)C)=C(O)C(=O)N1c1ccc(-c2csc(C)c2)cc1 (stereo not drawn) [Compound I-262] | 16 nM |
| CN(C)C(=O)c1ccccc1C1C(C(=O)CC(C)(C)C)=C(O)C(=O)N1c1ccc(-c2ccsc2)cc1 (stereo not drawn) [Compound I-466] | 260 nM |
| Cc1ccc(-c2ccc(N3C(=O)C(O)=C(C(=O)CC(C)C)C3c3ccccc3OCCO)cc2)s1 (stereo not drawn) [Compound I-328] | 65 nM |
| COCc1ccccc1C1C(C(=O)CC(C)C)=C(O)C(=O)N1c1ccc(-c2ccco2)cc1 (stereo not drawn) [Compound I-355] | 44 nM |
| COCc1ccccc1C1C(C(=O)CC(C)C)=C(O)C(=O)N1c1ccc(-c2noc(C)n2)cc1 (stereo not drawn) [Compound I-315] | 252 nM |
| COCCOc1ccccc1C1C(C(=O)C(C)(C)C)=C(O)C(=O)N1c1ccc(SC)cc1 (stereo not drawn) [Compound I-130] | 476 nM |

Other lines, results leading:

| IC50 | Structure (SMILES) |
| --- | --- |
| 301 nM | CNC(=O)c1n[nH]c2c1C(c1ccccc1OC)N(c1ccc(-c3ccsc3)cc1)C2=O (stereo not drawn) [II-181] |
| 12 nM | C[S+]([O-])CCOc1ccccc1C1c2c(C(C)(C)C)n[nH]c2C(=O)N1c1ccc(-c2ccsc2)cc1 (stereo not drawn) [II-076] |
| 23 nM | COc1ncccc1C1c2c(C(C)(C)C)n[nH]c2C(=O)N1c1ccc(-c2ccsc2)cc1 (stereo not drawn) [II-223] |
| 378 nM | COCCOc1ncccc1C1c2c(C(C)C)n[nH]c2C(=O)N1c1ccc(-c2ccon2)cc1 (stereo not drawn) [II-279] |
| 4 nM | CC(C)(C)c1n[nH]c2c1C(c1ccccc1OCC(=O)O)N(c1ccc(-c3cccs3)cc1)C2=O (stereo not drawn) [II-022] |
| 838 nM | CC(C)(C)c1n[nH]c2c1C(c1ccccc1CO)N(c1ccc(-c3ccon3)cc1)C2=O (stereo not drawn) [II-113] |
| 431 nM | Cc1ncccc1C1c2c(C(C)(C)C)n[nH]c2C(=O)N1c1ccc(-c2ccsc2)cc1 (stereo not drawn) [II-123] |
| 32 nM | CC(C)c1n[nH]c2c1C(c1ccccc1CO)N(c1ccc(-c3ccsc3)cc1)C2=O (stereo not drawn) [II-086] |
| 217 nM | COc1ccccc1C1c2c(C(C)(C)C)n[nH]c2C(=O)N1c1ccc(OC(C)C)cc1 (stereo not drawn) [II-002] |
| 4 nM | CC(C)(C)c1n[nH]c2c1C(c1ccccc1OCCO)N(c1ccc(-c3cccs3)cc1)C2=O (stereo not drawn) [II-012] |
| 363 nM | COc1ncccc1C1c2c(C(C)(C)C)n[nH]c2C(=O)N1c1ccc(-c2ccoc2)nc1 (stereo not drawn) [II-269] |
| 783 nM | COc1ccccc1C1c2c(C(C)(C)C)n[nH]c2C(=O)N1c1ccc(C)cc1 (stereo not drawn) [II-196] |
| 158 nM | Cc1noc(-c2ccc(N3C(=O)c4[nH]nc(C(C)(C)C)c4C3c3ccccc3OCCO)cc2)n1 (stereo not drawn) [II-016] |
| 54 nM | Cc1nc(-c2ccc(N3C(=O)c4[nH]nc(C(C)(C)C)c4C3c3ccccc3OCCO)cc2)no1 (stereo not drawn) [II-017] |
| 87 nM | Cc1cc(-c2ccc(N3C(=O)c4[nH]nc(C(C)(C)C)c4C3c3ccccc3OCCO)cc2)on1 (stereo not drawn) [II-015] |
| 5 nM | CC(C)c1n[nH]c2c1C(c1ccccc1OC(CO)CO)N(c1ccc(-c3ccsc3)cc1)C2=O (stereo not drawn) [II-236] |
| 9 nM | CC(C)c1n[nH]c2c1C(c1ccccc1NC(N)=O)N(c1ccc(-c3ccsc3)cc1)C2=O (stereo not drawn) [II-087] |
| 11 nM | CC(C)c1n[nH]c2c1C(c1ccccc1OCC[S+](C)[O-])N(c1ccc(-c3ccsc3)cc1)C2=O (stereo not drawn) [II-080] |
| 10 nM | CC(C)(C)c1n[nH]c2c1C(c1cccnc1OCCO)N(c1ccc(-c3cccs3)cc1)C2=O (stereo not drawn) [II-042] |
| 19 nM | CSc1ccc(N2C(=O)c3[nH]nc(C(C)(C)C)c3C2c2ccccc2OCCO)cc1 (stereo not drawn) [II-013] |
